Measurements published in patent US20060045847A1, “Method for determination of anabolic activity” (priority 2004, published 2006).
Read-outs that look alike come from different tables or passages of the source.

Experiments:
[1] = test system: mouse prostate; experiment: Preliminary experiment: stimulation of mouse prostate weight, potency relative to DHT; format: in vivo; conditions: data not shown
Description: We next used the best recognized in vivo assay to assess the in vivo activity of THG [Labrie, C., A. Bélanger, and F. Labrie, Androgenic activity of dehydroepiandrosterone and androstenedione in the rat ventral prostate. Endocrinology, 1988. 123: p. 1412-1417]. […] Similar observations were made for the preputial gland. The levator ani is an androgen-sensitive muscle [Boissonneault, G., et al., Depressed translational activity in the androgen sensitive levator ani muscle of the rat. J Steroid Biochem, 1989. 32(4): p. 507-13] which has long been recognized as a myotropic marker of the androgenic/anabolic activity of steroids [Eisenberg, S., R. Buie, Jr., and L. Tobian, Jr., Adrenal cortical function in essential hypertension; a study of sweat sodium concentration. Am J Med Sci, 1950. 220(3): p. 287-9].

[2] = target: T1, human androgen receptor (Homo sapiens, UniProt P10275); experiment: Androgen receptor (AR) binding assay, displacement of [3H]R1881 (hydroxylapatite method)
T1 construct: expressed in transfected cells; host or cells: HEK-293 cells stably transfected with the pCMV neo-hAR plasmid; the 105 000 x g cytosol was used
T1 sequence (P10275 1-920): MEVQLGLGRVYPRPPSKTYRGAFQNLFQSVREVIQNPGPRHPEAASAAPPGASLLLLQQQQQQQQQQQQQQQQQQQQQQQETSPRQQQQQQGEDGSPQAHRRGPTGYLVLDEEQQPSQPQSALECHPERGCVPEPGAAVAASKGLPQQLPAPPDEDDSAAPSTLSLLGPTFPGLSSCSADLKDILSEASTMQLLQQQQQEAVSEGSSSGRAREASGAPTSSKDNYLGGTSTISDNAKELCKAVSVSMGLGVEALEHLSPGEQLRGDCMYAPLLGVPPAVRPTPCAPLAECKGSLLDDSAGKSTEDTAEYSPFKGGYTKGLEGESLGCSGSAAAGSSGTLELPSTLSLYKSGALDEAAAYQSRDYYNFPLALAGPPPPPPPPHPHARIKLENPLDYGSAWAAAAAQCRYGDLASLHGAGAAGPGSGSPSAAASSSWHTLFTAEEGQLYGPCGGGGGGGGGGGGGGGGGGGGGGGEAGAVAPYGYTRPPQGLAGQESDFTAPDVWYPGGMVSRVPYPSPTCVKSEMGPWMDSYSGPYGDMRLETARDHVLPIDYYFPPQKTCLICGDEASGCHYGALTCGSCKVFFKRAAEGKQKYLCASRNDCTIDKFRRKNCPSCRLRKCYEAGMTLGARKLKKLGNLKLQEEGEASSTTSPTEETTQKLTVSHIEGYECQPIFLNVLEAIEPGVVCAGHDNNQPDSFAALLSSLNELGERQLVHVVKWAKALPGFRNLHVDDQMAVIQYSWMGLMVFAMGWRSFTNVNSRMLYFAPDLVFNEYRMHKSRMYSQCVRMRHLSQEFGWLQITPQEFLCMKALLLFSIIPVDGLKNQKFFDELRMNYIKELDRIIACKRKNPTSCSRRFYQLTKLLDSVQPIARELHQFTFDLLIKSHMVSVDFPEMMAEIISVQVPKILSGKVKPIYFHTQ
Experimental: The incubation was performed with 3 nM [^3H]R1881 for 16 h at 0-4° C. in the presence or absence of the indicated concentrations of unlabeled compounds.
Androgen Receptor (AR) Assay
Preparation of Human Embryonic Kidney (HEK-293) cells stably Transfected with Human AR (hAR): The pCMV neo-hAR plasmid [Huang, X.-F. and V. Luu-The, Modulation of the androgenic response by recombinant human 11-cis retinol dehydrogenase. J. Steroid Biochem., 2001. 77(2-3): p. 129-133] was transfected into HEK-293 cells using lipofectin transfection kit (Life Technologies, Ontario, Canada), and cells resistant to G418 were isolated as previously described [Dufort, I., et al., Characteristics of a highly labile human type 5 17beta-hydroxysteroid dehydrogenase. Endocrinology, 1999. 140(2): p. 568-574]. On the morning of the binding assay, a pellet of HEK-293 hAR cells was thawed, suspended in buffer, sonicated and centrifuged at 105 000×g for 90 min. The androgen binding assay was performed with the hydroxylapatite (HAP) method [Martel, C., et al., Binding characteristics of novel nonsteroidal antiestrogens to the rat uterine estrogen receptors. J. Steroid Biochem. Mol. Biol., 1998. 64: p. 199-205] using HEK-293 hAR cell cytosol preparation (0.1 ml) and 3 nM [^3H]R1881.

[3] = test system: gonadectomized (GDX) male C57BL6 mice; experiment: 7-day daily s.c. treatment, androgen-sensitive tissue weights in gonadectomized mice; format: in vivo, mouse; conditions: daily s.c. 7 days, DHT 0.1 mg or THG 0.5 mg; for levator ani muscle weight: versus intact animals; for prostate weight: versus intact controls
Description: We next used the best recognized in vivo assay to assess the in vivo activity of THG [Labrie, C., A. Bélanger, and F. Labrie, Androgenic activity of dehydroepiandrosterone and androstenedione in the rat ventral prostate. Endocrinology, 1988. 123: p. 1412-1417]. […] The levator ani is an androgen-sensitive muscle [Boissonneault, G., et al., Depressed translational activity in the androgen sensitive levator ani muscle of the rat. J Steroid Biochem, 1989. 32(4): p. 507-13] which has long been recognized as a myotropic marker of the androgenic/anabolic activity of steroids [Eisenberg, S., R. Buie, Jr., and L. Tobian, Jr., Adrenal cortical function in essential hypertension; a study of sweat sodium concentration. Am J Med Sci, 1950. 220(3): p. 287-9].
Eleven- to twelve-week-old male C57BL6 mice obtained from Harlan (Indianapolis, Ind.) were allowed to acclimate for 2 weeks. The animals were housed individually in an environmentally-controlled room (temperature: 22±3° C.; humidity: 50±20%; 12-h light-12-h dark cycles, lights on at 07:15 h). The mice had free access to tap water and a certified rodent feed (Lab Diet 5002 (pellet), Ralston Purina, St-Louis, Mo.). The experiment was conducted in an animal facility approved by the Canadian Council on Animal Care (CCAC) and the Association for Assessment and Accreditation of Laboratory Animal Care (AAALAC). The study was performed in accordance with the CCAC Guide for Care and Use of Experimental Animals.
(§1) Animals weighing between 24.0 and 32.4 g (mean=28.2 g) were randomized according to body weight and were assigned to nineteen groups of 10 animals each. On day 1 of the study, animals were castrated (GDX) under isoflurane anesthesia. All animals were sacrificed 7 days after GDX. […] A GDX-vehicle injected group were used as a control. Eight intact mice of the same strain, age and body weight were sacrificed as described above and tissues were collected, weighed and discarded. The mice sacrificed 2, 4 and 7 days after starting treatment received daily injection of the steroids and were sacrificed 24 h after last injection under isoflurane anesthesia and exsanguinated via cardiac puncture. The prostate (ventral+dorsal), seminal vesicles, preputial glands as well as gastrocnemius and levator ani muscle were collected, freed from adhering tissue or fluid and weighed.

[4] = test system: androgen-sensitive genes in levator ani muscle, gastrocnemius muscle and prostate; experiment: Microarray gene expression profile in tissues of GDX mice, genes modulated in common with DHT; format: in vivo, mouse; conditions: s.c. 0.5 mg THG vs 0.1 mg DHT, 0.5 h to 7 days
Description: The genes selected were those identified in common according to the Affymetrix, MAS 5.0 and RMA program [Gautier, L., et al., affy—analysis of Affymetrix GeneChip data at the probe level. Bioinformatics, 2004. 20(3): p. 307-15]. Color scale representing days of fold change due to treatments is shown below the figure.
The selected genes were clustered by Euclidean distance. Columns represents each one of the 790 selected gene and each row a particular treatement group. A pseudo-colored representation of relative intensity is shown such that red indicates high, blue low and yellow unchanged expression, with scale shown at the right.
In the prostate, on the other hand, the classical androgen-sensitive tissue [Labrie, C., A. Bélanger, and F. Labrie, Androgenic activity of dehydroepiandrosterone and androstenedione in the rat ventral prostate. Endocrinology, 1988. 123: p.
as §1, with “The prostate (ventral+dorsal), seminal vesicles, preputial glands as well as gastrocnemius and levator ani muscle were collected, freed from adhering tissue or fluid and weighed.” left out
RNA extraction and microarrays tissues were snap-frozen in liquid nitrogen and kept at −80° C. prior to RNA extraction. […] Scanned images were analyzed with Affymetrix GCOS v1.1 software and with GeneSpring 6.1 software (Silicon Genetics, Redwood City, Calif.) as described [Vasseur, S., et al., Gene expression profiling by DNA microarray analysis in mouse embryonicfibroblasts transformed by rasV12 mutated protein and the E1A oncogene. […]

Row | Structure (SMILES) | potency relative to DHT as stimulator of the weight of the mouse prostate [1] [%] | relative potency to displace [3H]R1881 from the human AR ([2]; 3 nM [3H]R1881, 16 h at 0-4° C., HEK-293 hAR cell cytosol, THG = 1.0) | preputial gland weight [3] | seminal vesicle weight [3] | levator ani muscle weight [3] | prostate weight [3] | number of genes commonly modulated by DHT and THG in gastrocnemius muscle [4] [genes] | number of genes commonly modulated by DHT and THG in levator ani muscle [4] [genes] | number of genes commonly modulated by DHT and THG in prostate [4] [genes] | relative potency to displace [3H]R1881 from the human AR [2]
1 | CC[C@]1(O)CC[C@H]2[C@@H]3CCC4=CC(=O)CCC4=C3C=C[C@@]21CC [THG, tetrahydrogestrinone] | 20 | 1.0 | completely reversed the GDX-induced atrophy | completely reversed the GDX-induced atrophy | increased weight of levator ani to values not different from intact animals | reversed the effect of GDX, to a value not statistically different from intact controls | 112 | 790 | 1121 | –
2 | C[C@]1(O)CC[C@H]2[C@@H]3CCC4=CC(=O)CCC4=C3C=C[C@@]21C [R1881, methyltrienolone, reference compound] | – | – | – | – | – | – | – | – | – | 0.72
3 | C[C@]12CCC(=O)C[C@@H]1CC[C@@H]1[C@@H]2CC[C@]2(C)[C@@H](O)CC[C@@H]12 [DHT, dihydrotestosterone, reference compound] | – | – | completely reversed the GDX-induced atrophy | completely reversed the GDX-induced atrophy | increased weight of levator ani to values not different from intact animals | completely reversed the GDX-induced atrophy of the prostate | – | – | – | –
